Data from patent US7781485B2, “Hsp90 family protein inhibitors” (Kyowa Hakko Kirin Co., Ltd., priority 2004, dated 2010).

system: human mammary cancer-derived KPL-4 cells; test: Growth inhibition test on human mammary cancer-derived KPL-4 cells (WST-1); assay type: cell-based; details: KPL4, 72 hours culture, read-out: 50% growth inhibitory concentration (GI50)
Protocol: Two thousand cells of human mammary cancer-derived KPL-4 cells were inoculated into each well of a 96-well microplate (manufactured by Nunc Corp.), and using Dulbecco's Modified Eagle's Medium (DMEM) (culture medium) containing 10% fetal calf serum (FCS), preculturing was performed in a 5% carbon dioxide incubator at 37° C. for 24 hours. A dimethyl sulfoxide (DMSO) solution of each test compound prepared in a concentration of 10 mmol/L was diluted with the culture medium step-by-step to a final concentration of […], and the diluted solution was added to each well. The individual wells were further cultured in the 5% carbon dioxide incubator at 37° C. for 72 hours. After completion of the culturing, 20 μL of WST-1 {4-[3-(4-Iodophenyl)-2-(4-nitrophenyl)-2H-5-tetrazolio]-1,3-benzene disulfonate} reagent mixture (manufactured by Roche Diagnostic Corp.) diluted to twice its original amount by culture medium was added to each well, and culturing was performed in the 5% carbon dioxide incubator at 37° C. for 1 hour. Using a microplate spectrophotometer (Model 550; manufactured by Bio-Rad), the absorbance of each well was measured at 450 nm and 655 nm. The cell growth inhibitory activity was expressed as 50% growth inhibitory concentration (GI50). The method for calculating the GI50 value is as follows. A value obtained by subtracting the absorbance at 655 nm from the absorbance at 450 nm (absorbance difference) was calculated for each well. The absorbance difference obtained for cells not treated with a test compound was designated as 100%, which was compared with the absorbance difference obtained for cells treated with each compound at various test concentrations, and thus the compound concentration at which cell growth was inhibited by 50% was calculated to determine the GI50 value.

| SMILES | GI50 |
| --- | --- |
| O=C(Nc1ccccc1)c1c(O)cc(O)cc1COCc1ccccc1 [Compound 1, 2-(Benzyloxymethyl)-4,6-dihydroxy-N-phenylbenzamide] | ≤ 50 µM |
| O=C(NCc1ccccn1)c1c(O)cc(O)c(Cl)c1COCc1ccccc1 [Compound 9, 2-(Benzyloxymethyl)-3-chloro-4,6-dihydroxy-N-(pyridin-2-ylmethyl)benzamide] | ≤ 50 µM |
| O=C(NCc1ccccc1)c1c(O)cc(O)cc1COCc1ccccc1 [Compound 2, N-benzyl-2-(benzyloxymethyl)-4,6-dihydroxybenzamide] | ≤ 50 µM |
| O=C(NCCc1ccccc1)c1c(O)cc(O)cc1COCc1ccccc1 [Compound 3, 2-(Benzyloxymethyl)-4,6-dihydroxy-N-phenethylbenzamide] | ≤ 50 µM |
| COC(=O)c1c(O)cc(O)c(Br)c1COCc1ccccc1 [Compound 10, 2-(Benzyloxymethyl)-3-bromo-4,6-dihydroxybenzoic acid methyl ester] | ≤ 50 µM |

Other lines, results leading:

| GI50 | SMILES |
| --- | --- |
| ≤ 50 µM | CCc1c(O)cc(O)c(C(=O)N2CCOCC2)c1CC(=O)OC [Compound 14, [2-Ethyl-3,5-dihydroxy-6-(morpholinocarbonyl)phenyl]acetic acid methyl ester] |
| ≤ 50 µM | CCc1c(O)cc(O)c(C(=O)N(C)CCOC)c1CC(=O)OC [Compound 16, {2-Ethyl-3,5-dihydroxy-6-[N-(2-methoxyethyl)-N-methylcarbamoyl]phenyl}acetic acid methyl ester] |
| ≤ 50 µM | CCc1c(O)cc(O)c(C(=O)OC)c1CC(=O)OC [Compound 23, 3-Ethyl-4,6-dihydroxy-2-(methoxycarbonylmethyl)benzoic acid methyl ester] |
| ≤ 50 µM | CCCN(C)C(=O)c1c(O)cc(O)c(CC)c1CC(=O)OC [Compound 15, [2-Ethyl-3,5-dihydroxy-6-(N-methyl-N-propylcarbamoyl)phenyl]acetic acid methyl ester] |
| ≤ 50 µM | CCc1c(O)cc(O)c(C(=O)N2CCCCC2)c1CC(=O)OC [Compound 17, [2-Ethyl-3,5-dihydroxy-6-(piperidinocarbonyl)phenyl]acetic acid methyl ester] |
| ≤ 50 µM | CCc1c(O)cc(O)c(C(=O)NCc2ccccc2)c1CCO [Compound 19, N-benzyl-3-ethyl-4,6-dihydroxy-2-(2-hydroxyethyl)benzamide] |
| ≤ 50 µM | CCc1c(O)cc(O)c(C(=O)N2CCN(C)CC2)c1CC(=O)OC [Compound 18, [2-Ethyl-3,5-dihydroxy-6-(4-methylpiperazin-1-ylcarbonyl)phenyl]acetic acid methyl ester] |
